Reference: patent publication US5416222A, “3-pyrrolidine methanamines wherein the alpha-carbon is substituted by 1 or 2 lower alkyl groups which are intermediates for pyridone-carboxylic acid derivatives” (Daiichi Seiyaku Co., Ltd., priority 1985, dated 1995)
Values after ≈ are worked out from the molar mass of the structure shown.

Columns and labels:
Ser. marcescens, 13001 = experiment: antimicrobial activity, MIC, standard process of Japan Society of Chemotherapy; format: cell-based; details: for minimum growth inhibitory concentration (MIC): Ser. marcescens
Experimental: (§1) The antimicrobial activities of the compounds of the present invention were determined according to a standard process designated by the Japan Society of Chemotherapy and the minimum growth inhibitory concentrations (MIC) (μg/ml) the compounds were determined.

Ps. aeruginosa, 2128 = experiment: as above; format: cell-based; details: for minimum growth inhibitory concentration (MIC): Ps. aeruginosa
Experimental: as §1

[1] = system: Str. faecalis, ATCC 19433; experiment: as above; format: cell-based; details: for minimum growth inhibitory concentration (MIC): Str. faecalis
Experimental: as §1

E. coli, NIHJ = experiment: as above; format: cell-based
Experimental: as §1

Str. pyogenes, G-36 = experiment: as above; format: cell-based; details: for minimum growth inhibitory concentration (MIC): Str. pyogenes
Experimental: as §1

Pr. mirabilis, IF03849 = experiment: as above; format: cell-based; details: for minimum growth inhibitory concentration (MIC): Pr. mirabilis
Experimental: as §1

Sh. flexneri, 2a5503 = experiment: as above; format: cell-based
Experimental: as §1

S. aureus, 209P = experiment: as above; format: cell-based
Experimental: as §1

Ps. cepacia, IID1340 = experiment: as above; format: cell-based; details: for minimum growth inhibitory concentration (MIC): Ps. cepacia
Experimental: as §1

Ps. maltophilia, IID1275 = experiment: as above; format: cell-based; details: for minimum growth inhibitory concentration (MIC): Ps. maltophilia
Experimental: as §1

Ps. aeruginosa, 2063 = experiment: as above; format: cell-based; details: for minimum growth inhibitory concentration (MIC): Ps. aeruginosa
Experimental: as §1

Pr. vulgaris, 3167 = experiment: as above; format: cell-based; details: for minimum growth inhibitory concentration (MIC): Pr. vulgaris
Experimental: as §1

S. epidermidis, 56500 = experiment: as above; format: cell-based; details: S. epidermidis
Experimental: as §1

[2] = system: Gram-negative microorganisms; experiment: antimicrobial activity against Gram-negative microorganisms (in words); format: cell-based
Experimental: as §1

[3] = system: Gram-positive microorganisms; experiment: antimicrobial activity against Gram-positive microorganisms (in words); format: cell-based
Experimental: as §1

physchem = format: physicochemical; details: water
Experimental: (§2) The water-solubility and acute toxicity of the compounds of the present invention and the comparative compounds, were measured. The results obtained are shown hereunder. The water-solubility was measured by the following method.
(i) Preparation of standard solution
About 400 μg of the sample to be measured was accurately weighed (the weight was defined as W μg), and 0.1N NaOH solution was added thereto to bring the whole volume to 50 ml. The UV absorbance of a given amount of the solution was measured and the measured absorbance was defined as A1.
(ii) Preparation of sample to be measured
Distilled water was added to the sample to be measured (fine powder) in such amount that the sample was not completely dissolved but suspended, and then the suspension was vigorously agitated at room temperature (between 23° and 26° C.) for 30 minutes. Insoluble matter of the sample was removed therefrom by filtration, after which 3 ml sample of the filtrate (satulated aqueous solution of the sample) was taken. 3 ml of 0.2N NaOH solution was added to the filtrate sample to bring the total volume to 6 ml (i.e. the filtrate was diluted to 50% concentration.) To 1 ml of the resulting solution, 0.1N NaOH solution was further added to bring the total volume to 25 ml […]. In this connection, degree of dilution was occasionally changed, depending on degree of UV absorbance. The UV absorbance of the given amount of the solution was measured and the resulting absorbance was defined to as A2. Where the number of dilution is N, water-solubility (s) is obtained from the following equation: [formula]

[4] = absorption after oral administration to rats; format: in vivo; details: rat, 20 mg/kg
Experimental: The compounds of the present invention and the comparative compound were orally given to rats (one group: 5 rats) at a dose of 20 mg/kg to measure the oral absorption of the compounds. The concentration of the compound in the blood of the rat was measured at 15 minutes, 30 minutes, and 1, 2, 3, 4, and 6 hours after administration.
Serum half lives (T1/2) were calculated as 0.693/Kel, where Kel is the elimination rate constant determined by linear regression analysis of the natural logarithm of serum concentration-time data. The area under the serum concentration-versus time curve from zero to 6 h (AUC0-6H) was calculated by the trapezoidal method, The results obtained are as follows: […]

mouse = experiment: acute toxicity to mouse; format: in vivo; details: 200 mg/kg; i.v.
Experimental: as §2
*200 mg/kg; i.v, (deaths/total number) As is obvious from the above

[5] = system: Gram-negative microorganisms; details: in words, prior art discussion; cited from earlier work
[6] = in words, prior art discussion; cited from earlier work

SMILES: CC(N)C1CCN(c2c(F)cc3c(=O)c(C(=O)O)cn(C4CC4)c3c2F)C1 (single isomer, unassigned) [Example 2, 7-[3-(1-Aminoethyl)-1-pyrrolidinyl]-1-cyclopropyl-6,8-difluoro-1,4-dihydro-4-oxoquinoline-3-carboxylic acid]
- minimum growth inhibitory concentration (MIC) (Ser. marcescens, 13001): ≤ 0.05 µg/mL
- minimum growth inhibitory concentration (MIC) (Ps. aeruginosa, 2128): ≤ 0.05 µg/mL
- minimum growth inhibitory concentration (MIC) [1]: ≤ 0.05 µg/mL
- minimum growth inhibitory concentration (MIC) (E. coli, NIHJ): ≤ 0.05 µg/mL
- minimum growth inhibitory concentration (MIC) (Str. pyogenes, G-36): ≤ 0.05 µg/mL
- minimum growth inhibitory concentration (MIC) (Pr. mirabilis, IF03849): ≤ 0.05 µg/mL
- minimum growth inhibitory concentration (MIC) (Sh. flexneri, 2a5503): ≤ 0.05 µg/mL
- minimum growth inhibitory concentration (MIC) (S. aureus, 209P): ≤ 0.05 µg/mL
- minimum growth inhibitory concentration (MIC) (Ps. cepacia, IID1340): 0.39 µg/mL
- minimum growth inhibitory concentration (MIC) (Ps. maltophilia, IID1275): 0.10 µg/mL
- minimum growth inhibitory concentration (MIC) (Ps. aeruginosa, 2063): 0.20 µg/mL
- minimum growth inhibitory concentration (MIC) (Pr. vulgaris, 3167): ≤ 0.05 µg/mL
- minimum growth inhibitory concentration (MIC) (S. epidermidis, 56500): ≤ 0.05 µg/mL
- anti-microbial activity against Gram-negative microorganisms [2]: extremely strong anti-microbial activity
- anti-microbial activity against Gram-positive microorganisms [3]: extremely strong anti-microbial activity

SMILES: CCn1cc(C(=O)O)c(=O)c2cc(F)c(N3CCC(C(C)N)C3)c(F)c21 (single isomer, unassigned) [Example 4, 7-[3-(1-Aminoethyl)-1-pyrrolidinyl]-1-ethyl-6,8-difluoro-1,4-dihydro-4-oxoquinoline-3-carboxylic acid]
- minimum growth inhibitory concentration (MIC) (Ser. marcescens, 13001): 0.10 µg/mL
- minimum growth inhibitory concentration (MIC) (Ps. aeruginosa, 2128): 0.10 µg/mL
- minimum growth inhibitory concentration (MIC) [1]: ≤ 0.05 µg/mL
- minimum growth inhibitory concentration (MIC) (E. coli, NIHJ): ≤ 0.05 µg/mL
- minimum growth inhibitory concentration (MIC) (Str. pyogenes, G-36): ≤ 0.05 µg/mL
- minimum growth inhibitory concentration (MIC) (Pr. mirabilis, IF03849): 0.20 µg/mL
- minimum growth inhibitory concentration (MIC) (Sh. flexneri, 2a5503): ≤ 0.05 µg/mL
- minimum growth inhibitory concentration (MIC) (S. aureus, 209P): ≤ 0.05 µg/mL
- minimum growth inhibitory concentration (MIC) (Ps. cepacia, IID1340): 0.78 µg/mL
- minimum growth inhibitory concentration (MIC) (Ps. maltophilia, IID1275): 0.39 µg/mL
- minimum growth inhibitory concentration (MIC) (Ps. aeruginosa, 2063): 0.20 µg/mL
- minimum growth inhibitory concentration (MIC) (Pr. vulgaris, 3167): 0.05 µg/mL
- minimum growth inhibitory concentration (MIC) (S. epidermidis, 56500): ≤ 0.05 µg/mL
- anti-microbial activity against Gram-negative microorganisms [2]: extremely strong anti-microbial activity
- anti-microbial activity against Gram-positive microorganisms [3]: extremely strong anti-microbial activity

SMILES: CNCC1CCN(c2c(F)cc3c(=O)c(C(=O)O)cn(C4CC4)c3c2F)C1 (stereo not shown) [Compound B, 1-cyclopropyl-6,8-difluoro-(3-methylaminomethyl-1-pyrolidinyl)-1,4-dihydro-4-oxoquinoline-3-carboxylic acid, reference compound]
- MIC (Ser. marcescens, 13001; Serratia marcescens, 13001, Ser. marcescens, read-out: minimum growth inhibitory concentration (MIC)): ≤ 0.05 µg/mL
- MIC (Ps. aeruginosa, 2128; Pseudomonas aeruginosa, 2128, Ps. aeruginosa, read-out: minimum growth inhibitory concentration (MIC)): 0.2 µg/mL (≈ 0.53 µM)
- MIC ([1]; Enterococcus faecalis, ATCC19433, Str. faecalis, read-out: minimum growth inhibitory concentration (MIC)): 0.1 µg/mL (≈ 0.265 µM)
- MIC (E. coli, NIHJ; Escherichia coli, read-out: minimum growth inhibitory concentration (MIC)): ≤ 0.05 µg/mL
- MIC (Str. pyogenes, G-36; Streptococcus pyogenes, G36, Str. pyogenes, read-out: minimum growth inhibitory concentration (MIC)): 0.1 µg/mL (≈ 0.265 µM)
- MIC (Pr. mirabilis, IF03849; Proteus mirabilis, IF03849, Pr. mirabilis, read-out: minimum growth inhibitory concentration (MIC)): ≤ 0.05 µg/mL
- MIC (Sh. flexneri, 2a5503; Shigella flexneri, read-out: minimum growth inhibitory concentration (MIC)): 0.1 µg/mL (≈ 0.265 µM)
- MIC (S. aureus, 209P; Staphylococcus aureus, read-out: minimum growth inhibitory concentration (MIC)): ≤ 0.05 µg/mL
- MIC (Ps. cepacia, IID1340; Burkholderia cepacia, IID1340, Ps. cepacia, read-out: minimum growth inhibitory concentration (MIC)): 1.56 µg/mL (≈ 4.13 µM)
- MIC (Ps. maltophilia, IID1275; Stenotrophomonas maltophilia, IID1275, Ps. maltophilia, read-out: minimum growth inhibitory concentration (MIC)): 0.2 µg/mL (≈ 0.53 µM)
- MIC (Ps. aeruginosa, 2063; Pseudomonas aeruginosa, 2063, Ps. aeruginosa, read-out: minimum growth inhibitory concentration (MIC)): 0.2 µg/mL (≈ 0.53 µM)
- MIC (Pr. vulgaris, 3167; Proteus vulgaris, 3167, Pr. vulgaris, read-out: minimum growth inhibitory concentration (MIC)): ≤ 0.05 µg/mL
- solubility at 0.5 h (physchem): 80 µg/mL (≈ 212 µM)
- half-life ([4]; serum half life, 0.693/Kel): 1.55 h
- Cmax ([4]; serum, 5 rats per group): 1370 ng/mL
- AUC(0-t) at 6 h ([4]; serum, zero to 6 h, trapezoidal method, read-out: AUC0-6H): 3610 ng·h/mL
- Acute toxicity to mouse (mouse): 2/5
- antimicrobial activity against Gram-negative microorganisms (prior art compounds) [5]: strong antimicrobial activity
- water-solubility (prior art compounds) [6]: extremely low water-solubility
